Key:
Assay type in all cases: functional
NCI/ADR-RES = test: Tested for in vitro cytotoxic activity against breast MCF-7/ADR human cancer cell lines
M14 = test: Tested for in vitro cytotoxic activity against melanoma M14 human cancer cell lines
NCI-H522 = test: Tested for in vitro cytotoxic activity against lung H522 human cancer cell lines
DU-145 = test: Tested for in vitro cytotoxic activity against prostate DU145 human cancer cell lines
A498 = test: Tested for in vitro cytotoxic activity against renal A498 human cancer cell lines
SK-OV-3 = test: Tested for in vitro cytotoxic activity against ovarian SKOV3 human cancer cell lines
SW-620 = test: Tested for in vitro cytotoxic activity against colon SW620 human cancer cell lines
U-251 = test: Tested for in vitro cytotoxic activity against CNS U251 human cancer cell lines

SMILES	GI50 (NCI/ADR-RES)	GI50 (M14)	GI50 (NCI-H522)	GI50 (DU-145)	GI50 (A498)	GI50 (SK-OV-3)	GI50 (SW-620)	GI50 (U-251)
Cc1ccc2c(c1)C(=O)c1nc3ccccc3c(=O)n1-2	0.1 µM	60 µM	0.15 µM	> 100 µM	60 µM	> 100 µM	> 100 µM	20 µM
O=C1c2ccccc2-n2c1nc1ccc([N+](=O)[O-])cc1c2=O	> 100 µM	> 100 µM	> 100 µM	> 100 µM	> 100 µM	> 100 µM	> 100 µM	> 100 µM
CS(=O)(=O)Nc1ccc2c(c1)C(=O)c1nc3ccccc3c(=O)n1-2	> 100 µM	> 100 µM	> 100 µM	> 100 µM	> 100 µM	> 100 µM	> 100 µM	> 100 µM
C=CC1(O)c2ccccc2-n2c1nc1ccccc1c2=O (centres undefined)	20 µM	8 µM	15 µM	10 µM	12 µM	6 µM	10 µM	12 µM
CN1CCN(CC(=O)Nc2ccc3c(c2)C(=O)c2nc4ccccc4c(=O)n2-3)CC1	20 µM	8 µM	15 µM	10 µM	20 µM	6 µM	10 µM	> 100 µM
O=Nc1c2ccccc2n2c(O)c3ccccc3nc12	15 µM	40 µM	50 µM	50 µM	60 µM	30 µM	8 µM	15 µM
O=c1c2ccccc2nc2n1-c1ccccc1C2(O)OCCOc1ccccc1 (centres undefined)	> 100 µM	> 100 µM	> 100 µM	> 100 µM	> 100 µM	> 100 µM	> 100 µM	> 100 µM
O=C1c2cc(Br)ccc2-n2c1nc1ccccc1c2=O	0.7 µM	0.8 µM	0.7 µM	0.15 µM	3 µM	5 µM	0.4 µM	> 100 µM
O=c1c2ccccc2nc2n1-c1ccc([N+](=O)[O-])cc1/C2=N\OCCO	0.4 µM	2 µM	0.7 µM	2.5 µM	0.6 µM	2 µM	0.75 µM	0.8 µM
O=C1c2ccccc2-n2c1nc1ccccc1c2=O [TRYPTANTHRIN]	30 µM	15 µM	15 µM	0.4 µM	0.95 µM	2.5 µM	5 µM	100 µM
O=C1c2cc([N+](=O)[O-])ccc2-n2c1nc1ccccc1c2=O	1 µM	15 µM	4.8 µM	8 µM	2 µM	25 µM	25 µM	4.5 µM
O=C1c2cc(Cl)ccc2-n2c1nc1ccccc1c2=O	> 100 µM	> 100 µM	> 100 µM	> 100 µM	> 100 µM	> 100 µM	> 100 µM	> 100 µM
COc1ccc2c(c1)C(=O)c1nc3ccccc3c(=O)n1-2	> 100 µM	> 100 µM	> 100 µM	> 100 µM	> 100 µM	> 100 µM	> 100 µM	> 100 µM
O=C(CCl)Nc1ccc2c(c1)C(=O)c1nc3ccccc3c(=O)n1-2	0.06 µM	0.9 µM	4 µM	0.25 µM	0.4 µM	0.05 µM	0.6 µM	0.2 µM
CN(C)CCO/N=C1\c2cc([N+](=O)[O-])ccc2-n2c1nc1ccccc1c2=O	4 µM	7.5 µM	9 µM	> 100 µM	> 100 µM	9 µM	0.75 µM	7.5 µM
CN(C)CCO/N=C1\c2cc(Br)ccc2-n2c1nc1ccccc1c2=O	0.06 µM	2 µM	2 µM	0.2 µM	1.5 µM	3 µM	3 µM	0.45 µM
CN(C)CCCO/N=C1\c2ccccc2-n2c1nc1ccccc1c2=O	7.5 µM	5 µM	0.6 µM	3.5 µM	4 µM	2 µM	4 µM	0.7 µM
CCCC(=O)Nc1ccc2c(c1)C(=O)c1nc3ccccc3c(=O)n1-2	10 µM	18.5 µM	18.2 µM	20 µM	20 µM	6 µM	10.5 µM	12 µM

Source: ChEMBL document CHEMBL1134884, “Novel indolo[2,1-b]quinazoline analogues as cytostatic agents: synthesis, biological evaluation and structure-activity relationship” (Bioorg Med Chem Lett, 2002)
